Measured values taken from PMC12737022, “Evaluations of Sex Differences in Dosimetry in Rats Following Perfluorohexanesulfonamide (PFHxSA) Oral Exposure” (Toxics, 2025).
Several values for one entry are separate records, joined by “and”; a condition that tells them apart may be missing. Equal entries are not always repeated. Where two headings read alike, the source gives them in different places.

Test: Liver-to-plasma partitioning (Kp)
Type: in vivo, rat
Conditions: for Kp at 120 h: po
Experimental: Liver-to-plasma partitioning (Kp) for PFHxSA was assessed for each sex (SI Text S8, Table 6). There were no sex differences in PFHxSA Kp values. […] Refer to SI Table S15 for Kp results for individual rats. […]
Text S8 Liver-to-Plasma Partitioning Coefficient Calculation
Concentrations (µM) of PFHxSA in liver and plasma were used to calculate experimental liver-to-
plasma (Kp) partitioning values for both sexes across all dose levels using Equation E.
(E) K ௣ = Concentration௢௥௚௔௡Concentration௣௟௔௦௠௔

NS(=O)(=O)C(F)(F)C(F)(F)C(F)(F)C(F)(F)C(F)(F)C(F)(F)F [PFHxSA, Perfluorohexanesulfonamide]
Female Partition Coefficient (Kp), liver-plasma (PFHxSA 0.1 mg/kg/day oral 5 days, female, individual rats): 0.516 and 0.491 and 0.293 and 0.378 | Male Partition Coefficient (Kp), liver-plasma (PFHxSA 0.1 mg/kg/day oral 5 days, male, individual rats): 0.662 and 0.433 and 0.319 and 0.860 and 0.744 | Female Partition Coefficient (Kp), liver-plasma (PFHxSA 0.3 mg/kg/day oral 5 days, female, individual rats): 0.633 and 0.239 and 0.486 and 0.499 and 0.302 | Male Partition Coefficient (Kp), liver-plasma (PFHxSA 0.3 mg/kg/day oral 5 days, male, individual rats): 0.215 and 0.362 and 0.134 and 0.315 and 0.255 | Female Partition Coefficient (Kp), liver-plasma (PFHxSA 1 mg/kg/day oral 5 days, female, individual rats): 0.197 and 0.224 and 0.122 and 0.325 | Male Partition Coefficient (Kp), liver-plasma (PFHxSA 1 mg/kg/day oral 5 days, male, individual rats): 0.233 and 0.174 and 0.293 and 0.249 | Female Partition Coefficient (Kp), liver-plasma (PFHxSA 3 mg/kg/day oral 5 days, female, individual rats): 0.280 and 0.239 and 0.244 | Male Partition Coefficient (Kp), liver-plasma (PFHxSA 3 mg/kg/day oral 5 days, male, individual rats): 0.193 and 0.153 and 0.235 and 0.105 and 0.244 | Female Partition Coefficient (Kp), liver-plasma (PFHxSA 10 mg/kg/day oral 5 days, female, individual rats): 0.145 and 0.119 and 0.113 (2×) | Male Partition Coefficient (Kp), liver-plasma (PFHxSA 10 mg/kg/day oral 5 days, male, individual rats): 0.249 and 0.178 and 0.194 | Female Partition Coefficient (Kp), liver-plasma (PFHxSA 30 mg/kg/day oral 5 days, female, individual rats): 0.134 and 0.142 and 0.162 and 0.147 | Male Partition Coefficient (Kp), liver-plasma (PFHxSA 30 mg/kg/day oral 5 days, male, individual rats): 0.142 (2×) and 0.145 | Female Partition Coefficient (Kp), liver-plasma (PFHxSA 100 mg/kg/day oral 5 days, female, individual rats): 0.187 and 0.344 and 0.214 and 0.213 | Male Partition Coefficient (Kp), liver-plasma (PFHxSA 100 mg/kg/day oral 5 days, male, individual rats): 0.506 and 0.754 and 0.306 and 0.230 and 0.221 | Kp at 24 h (both sexes, Sprague Dawley (Crl:CD(SD)), rat, liver and plasma, oral, both sexes across all tested doses): 0.13 to 0.6 | Kp at 120 h (female, Sprague Dawley (Crl:CD(SD)), rat, liver and plasma, 0.1 mg/kg/day, PFHxSA 0.1 mg/kg/day oral 5 days, female, individual rats, read-out: Female Partition Coefficient (Kp), liver-plasma): 0.424 | Kp at 120 h (female, Sprague Dawley (Crl:CD(SD)), rat, liver and plasma, 0.3 mg/kg/day, PFHxSA 0.3 mg/kg/day oral 5 days, female rats, mean ± SD, read-out: PFHxSA liver-to-plasma Kp, Female Rats): 0.431 ± 0.16 | Kp at 120 h (female, Sprague Dawley (Crl:CD(SD)), rat, liver and plasma, 1 mg/kg/day, PFHxSA 1 mg/kg/day oral 5 days, female rats, mean ± SD, read-out: PFHxSA liver-to-plasma Kp, Female Rats): 0.21 ± 0.074 | Kp at 120 h (female, Sprague Dawley (Crl:CD(SD)), rat, liver and plasma, 3 mg/kg/day, PFHxSA 3 mg/kg/day oral 5 days, female rats, mean ± SD, read-out: PFHxSA liver-to-plasma Kp, Female Rats): 0.222 ± 0.048 | Kp at 120 h (female, Sprague Dawley (Crl:CD(SD)), rat, liver and plasma, 3 mg/kg/day, PFHxSA 3 mg/kg/day oral 5 days, female, individual rats, read-out: Female Partition Coefficient (Kp), liver-plasma): 0.158 | Kp at 120 h (female, Sprague Dawley (Crl:CD(SD)), rat, liver and plasma, 10 mg/kg/day, PFHxSA 10 mg/kg/day oral 5 days, female rats, mean ± SD, read-out: PFHxSA liver-to-plasma Kp, Female Rats): 0.135 ± 0.03 | Kp at 120 h (female, Sprague Dawley (Crl:CD(SD)), rat, liver and plasma, 10 mg/kg/day, PFHxSA 10 mg/kg/day oral 5 days, female, individual rats, read-out: Female Partition Coefficient (Kp), liver-plasma): 0.183 | Kp at 120 h (female, Sprague Dawley (Crl:CD(SD)), rat, liver and plasma, 30 mg/kg/day, PFHxSA 30 mg/kg/day oral 5 days, female rats, mean ± SD, read-out: PFHxSA liver-to-plasma Kp, Female Rats): 0.148 ± 0.011 | Kp at 120 h (female, Sprague Dawley (Crl:CD(SD)), rat, liver and plasma, 30 mg/kg/day, PFHxSA 30 mg/kg/day oral 5 days, female, individual rats, read-out: Female Partition Coefficient (Kp), liver-plasma): 0.154 | Kp at 120 h (female, Sprague Dawley (Crl:CD(SD)), rat, liver and plasma, 100 mg/kg/day, PFHxSA 100 mg/kg/day oral 5 days, female rats, mean ± SD, read-out: PFHxSA liver-to-plasma Kp, Female Rats): 0.222 ± 0.072 | Kp at 120 h (female, Sprague Dawley (Crl:CD(SD)), rat, liver/plasma, 0.1 mg/kg/day, PFHxSA 0.1 mg/kg/day oral 5 days, female rats, mean ± SD, read-out: PFHxSA liver-to-plasma Kp, Female Rats): 0.42 ± 0.09 | Kp at 120 h (male, Sprague Dawley (Crl:CD(SD)), rat, liver and plasma, 1 mg/kg/day, PFHxSA 1 mg/kg/day oral 5 days, male rats, mean ± SD, read-out: PFHxSA liver-to-plasma Kp, Male Rats): 0.223 ± 0.053 | Kp at 120 h (male, Sprague Dawley (Crl:CD(SD)), rat, liver and plasma, 1 mg/kg/day, PFHxSA 1 mg/kg/day oral 5 days, male, individual rats, read-out: Male Partition Coefficient (Kp), liver-plasma): 0.166 | Kp at 120 h (male, Sprague Dawley (Crl:CD(SD)), rat, liver and plasma, 3 mg/kg/day, PFHxSA 3 mg/kg/day oral 5 days, male rats, mean ± SD, read-out: PFHxSA liver-to-plasma Kp, Male Rats): 0.186 ± 0.058 | Kp at 120 h (male, Sprague Dawley (Crl:CD(SD)), rat, liver and plasma, 10 mg/kg/day, PFHxSA 10 mg/kg/day oral 5 days, male rats, mean ± SD, read-out: PFHxSA liver-to-plasma Kp, Male Rats): 0.189 ± 0.041 | Kp at 120 h (male, Sprague Dawley (Crl:CD(SD)), rat, liver and plasma, 10 mg/kg/day, PFHxSA 10 mg/kg/day oral 5 days, male, individual rats, read-out: Male Partition Coefficient (Kp), liver-plasma): 0.191 | Kp at 120 h (male, Sprague Dawley (Crl:CD(SD)), rat, liver and plasma, 30 mg/kg/day, PFHxSA 30 mg/kg/day oral 5 days, male rats, mean ± SD, read-out: PFHxSA liver-to-plasma Kp, Male Rats): 0.144 ± 0.0075 | Kp at 120 h (male, Sprague Dawley (Crl:CD(SD)), rat, liver and plasma, 30 mg/kg/day, PFHxSA 30 mg/kg/day oral 5 days, male, individual rats, read-out: Male Partition Coefficient (Kp), liver-plasma): 0.156 | Kp at 120 h (male, Sprague Dawley (Crl:CD(SD)), rat, liver and plasma, 100 mg/kg/day, PFHxSA 100 mg/kg/day oral 5 days, male rats, mean ± SD, read-out: PFHxSA liver-to-plasma Kp, Male Rats): 0.403 ± 0.23 | Kp at 120 h (male, Sprague Dawley (Crl:CD(SD)), rat, liver/plasma, 0.1 mg/kg/day, PFHxSA 0.1 mg/kg/day oral 5 days, male rats, mean ± SD, read-out: PFHxSA liver-to-plasma Kp, Male Rats): 0.604 ± 0.22 | Kp at 120 h (male, Sprague Dawley (Crl:CD(SD)), rat, liver/plasma, 0.3 mg/kg/day, PFHxSA 0.3 mg/kg/day oral 5 days, male rats, mean ± SD, read-out: PFHxSA liver-to-plasma Kp, Male Rats): 0.256 ± 0.088
